IC50 data for 15 molecules are collected here from patent US20210198277A1, “AMINE-SUBSTITUTED ARYL OR HETEROARYL COMPOUNDS” (Epizyme, Inc., priority 2016, published 2021).

Molecules are shown by their SMILES.

This assay addresses T1, EHMT2 (Homo sapiens, UniProt Q96KQ7).
T1 construct: host or cells: MDA-MB-231
T1 sequence (Q96KQ7 1-1210): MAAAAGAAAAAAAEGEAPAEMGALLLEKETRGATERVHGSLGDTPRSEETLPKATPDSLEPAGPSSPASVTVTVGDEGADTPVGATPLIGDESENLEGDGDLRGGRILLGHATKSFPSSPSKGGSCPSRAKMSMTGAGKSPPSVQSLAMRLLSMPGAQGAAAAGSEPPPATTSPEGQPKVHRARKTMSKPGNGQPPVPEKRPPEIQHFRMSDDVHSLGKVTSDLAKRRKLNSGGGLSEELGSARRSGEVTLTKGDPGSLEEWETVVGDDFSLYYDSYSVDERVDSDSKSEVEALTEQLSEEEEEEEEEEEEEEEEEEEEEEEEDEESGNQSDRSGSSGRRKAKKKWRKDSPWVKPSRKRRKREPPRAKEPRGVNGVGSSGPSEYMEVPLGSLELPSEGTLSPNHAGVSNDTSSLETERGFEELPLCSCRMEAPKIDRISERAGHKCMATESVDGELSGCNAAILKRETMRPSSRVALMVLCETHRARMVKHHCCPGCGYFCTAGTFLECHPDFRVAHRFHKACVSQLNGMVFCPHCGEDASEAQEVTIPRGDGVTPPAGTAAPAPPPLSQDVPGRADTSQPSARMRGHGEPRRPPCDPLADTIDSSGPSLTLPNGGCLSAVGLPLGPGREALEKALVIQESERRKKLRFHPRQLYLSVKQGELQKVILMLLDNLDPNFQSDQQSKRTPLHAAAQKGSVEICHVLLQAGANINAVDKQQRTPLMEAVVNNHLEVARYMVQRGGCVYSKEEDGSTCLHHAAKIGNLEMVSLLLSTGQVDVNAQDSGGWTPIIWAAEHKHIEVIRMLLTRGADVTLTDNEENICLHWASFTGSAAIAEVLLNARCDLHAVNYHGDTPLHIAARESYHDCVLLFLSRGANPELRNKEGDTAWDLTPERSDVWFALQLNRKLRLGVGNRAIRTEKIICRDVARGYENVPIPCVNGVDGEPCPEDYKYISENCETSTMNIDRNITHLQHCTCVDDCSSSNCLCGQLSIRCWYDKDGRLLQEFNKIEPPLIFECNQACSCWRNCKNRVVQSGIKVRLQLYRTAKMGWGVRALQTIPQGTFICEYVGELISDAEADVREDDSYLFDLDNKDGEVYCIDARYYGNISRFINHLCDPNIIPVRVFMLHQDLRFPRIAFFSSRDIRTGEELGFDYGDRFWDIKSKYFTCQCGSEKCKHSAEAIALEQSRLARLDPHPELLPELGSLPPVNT
Kind of assay: MDA-MB-231 H3K9me2 in-cell Western assay (EHMT2 ICW). The assay is classed as cell-based. The note with it: Table VII; read-out: EHMT2 ICW IC50. Summed up: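 MDA-MB-231 cells (3,000/well) seeded onto compound, kept 30 min at room temperature, then 48 h at 37 °C, 5% CO2. IC50 from triplicate wells, four-parameter fit.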

With `CNc1ccnc(Nc2ccc(OC)c(OC[C@H](O)CN3CCC3)c2)n1` [Compound 1093], the half-inhibitory concentration (IC50) was 100 to 1000 nM.

As for `CNc1cc(C)nc(Nc2ccc(OC)c(CNCCN3CC[C@@H](F)C3)c2)n1` [Compound 1094], the IC50 was in the range of 100 to 1000 nM.

Take `CNCCNC(C)c1cc(Nc2nc(C)cc(NC)n2)ccc1OC` (stereo not drawn) [Compound 1095]: the IC50 was in the range of 1000 to 10000 nM.

Turning to `CCN1CCC(O)(COc2cc(Nc3nccc(NC)n3)ccc2OC)C1` (stereo not drawn) [Compound 1096], the IC50 is greater than 10000 nM.

With `CNc1ccnc(Nc2ccc(OC)c(OCC3(O)CCN(C)C3)c2)n1` (stereo not drawn) [Compound 1097], the IC50 was greater than 10000 nM.

Take `CNc1ccnc(Nc2cnc(OC)c(OC[C@@H]3CCN(C4CCC4)C3)c2)n1` [Compound 1098]: the IC50 was in the range of 100 to 1000 nM.

`CNc1cc(C)nc(Nc2ccc(OC)c(OC[C@H](O)CN3CC(C)C3)c2)n1` [Compound 1099]: the IC50 fell in the range of 100 to 1000 nM.

Regarding `CNc1cc(C)nc(Nc2ccc(OC)c(OC[C@H](O)CN3CC(C)C3)c2)n1` [Compound 1100], the IC50 is 1000 to 10000 nM.

With `CNc1cc(C)nc(Nc2ccc(OC)c(CNCCN(C)C)c2)n1` [Compound 1101], the IC50 is 100 to 1000 nM.

Turning to `CNC[C@H](C)NCc1cc(Nc2nc(C)cc(NC)n2)ccc1OC` [Compound 1102], the IC50 was in the range of 100 to 1000 nM.

`CNC[C@@H](C)NCc1cc(Nc2nc(C)cc(NC)n2)ccc1OC` [Compound 1103]: the IC50 is 1000 to 10000 nM.

Take `CNc1cc(C)nc(Nc2ccc(OC)c(COCCN3CCCC3)c2)n1` [Compound 1104]: the IC50 was in the range of 100 to 1000 nM.

For the molecule `CNc1cc(C)nc(Nc2ccc(OC)c(COCCN(C)C)c2)n1` [Compound 1105], the IC50 lay in the range of 1000 to 10000 nM.

As for `CCNc1cc(C)nc(Nc2ccc(OC)c(OC[C@H](O)CN3CCCC3)c2)n1` [Compound 1106], the IC50 is 100 to 1000 nM.

Regarding `CNc1cc(C2CCOCC2)c2cc(OC)c(OC[C@H](O)CN3CCCC3)cc2n1` [Compound 1107], the IC50 is 100 to 1000 nM.

What is called IC50 is the concentration that gives 50% inhibition.
